ChEMBL document CHEMBL1128323, “Antifungal agents. 9. 3-Aryl-4-[alpha-(1H-imidazol-1-yl)arylmethyl]pyrroles: a new class of potent anti-Candida agents” (1995)
≈ marks a conversion by molar mass, not a printed value. Where “and” joins values, the source holds several entries; their conditions need not be identical. Equal values may be shown once.

What was measured:
Assay type in all cases: functional
Candida albicans [1] = assay: Percent resistance against Candida albicans (40 clinical isolates) at 256 micro g/mL (pH=5.8), activity is expressed as R%.
Candida albicans [2] = assay: Resistance against Candida. albicans (40 clinical isolates) at 256 ug/mL (pH=7.2), activity is expressed as R%.
Candida albicans [3] = assay: Inhibitory activity against Candida albicans (40 clinical isolates), determined at pH-5.8
Candida albicans [4] = assay: Inhibitory activity against Candida albicans (40 clinical isolates), determined at pH-7.2
Candida [5] = assay: Inhibitory activity against Candida. species. (40 clinical isolates), determined at pH-5.8
Candida [6] = assay: Inhibitory activity against Candida. species (40 clinical isolates), determined at pH-5.8
Candida [7] = assay: 50% inhibitory activity against the Candida. species (40 clinical isolates) was determined at pH-7.2
Candida [8] = assay: 90% inhibitory activity against the Candida. species (40 clinical isolates) was determined at pH-7.2
Candida [9] = assay: The compound was tested for percent resistance against all Candida. species (40 clinical isolates) at 256 ug/mL (pH=7.2), activity is expressed as R%.
Candida albicans [10] = assay: Inhibitory activity against the Candida albicans (40 clinical isolates), determined at pH-5.8
Candida albicans [11] = assay: Inhibitory activity against the Candida albicans (40 clinical isolates), determined at pH-7.2
Candida albicans [12] = assay: 50% inhibitory activity against Candida albicans (40 clinical isolates) determined at pH-5.8
Candida [13] = assay: Inhibitory activity against the Candida. species. (40 clinical isolates) was determined at pH-7.2
Candida [14] = assay: The compound was tested for percent resistance against all Candida. species (40 clinical isolates) at 256 ug/mL (pH=5.8), activity is expressed as R%.
Candida albicans [15] = assay: 50% inhibitory activity against Candida albicans (40 clinical isolates) determined at pH-7.2; conditions: Candida albicans; read-out: MIC50
Candida [16] = assay: Inhibitory activity against Candida. species. (40 clinical isolates), determined at pH-7.2
Candida [17] = assay: Resistance against all Candida. species (40 clinical isolates) at 256 micro g/mL (pH=5.8). Activity is expressed as R%.
Candida [18] = assay: Percent resistance against all Candida. species (40 clinical isolates) at 256 micro g/mL (pH=7.2), activity is expressed as R%.
Candida [19] = assay: 90% inhibitory activity against Candida. species (40 clinical isolates) determined at pH-7.2
Oryctolagus cuniculus [20] = assay: Topical comparison with bifonazole in white male rabbits at 1% concentration of compound
Oryctolagus cuniculus [21] = assay: Topical comparison with bifonazole in white male rabbits by treatment twice daily on 15 consecutive days starting 48 hr after inoculation.
Candida albicans [22] = assay: The compound was tested for percent resistance against Candida. albicans (40 clinical isolates) at 256 micro g/mL (pH=7.2), activity is expressed as R%.
Candida [23] = assay: The compound was tested for percent resistance against all Candida. species (40 clinical isolates) at 256 micro g/mL (pH=5.8), activity is expressed as R%.

SMILES	R (Candida albicans [1])	R (Candida albicans [2])	MIC (Candida albicans [3])	MIC (Candida albicans [4])	MIC (Candida [5])	MIC50 (Candida [6])	MIC90 (Candida [6])	MIC50 (Candida [7])	MIC90 (Candida [8])	MIC90 (Candida albicans [10])	MIC90 (Candida albicans [11])	MIC50 (Candida albicans [12])	MIC50 (Candida albicans [15])	MIC (Candida [16])	R (Candida [17])	R (Candida [18])	Percentage of animals (Oryctolagus cuniculus [20])	R (Candida albicans [22])	also measured
c1ccc(-c2c[nH]cc2C(c2ccccc2)n2ccnc2)cc1 (centres undefined)	0%	2.7%	53.9 µg/mL (≈ 180 µM)	> 35.4 µg/mL	88 µg/mL (≈ 294 µM)	128 µg/mL (≈ 428 µM)	128 µg/mL (≈ 428 µM)	> 256 µg/mL	> 256 µg/mL	128 µg/mL (≈ 428 µM)	64 µg/mL (≈ 214 µM)	32 µg/mL (≈ 107 µM)	32 µg/mL (≈ 107 µM)	–	–	–	–	–	R (Candida [9]): 75%; MIC (Candida [13]): > 396 µg/mL; R (Candida [14]): 0%
O=[N+]([O-])c1ccc(C(c2c[nH]cc2-c2ccccc2)n2ccnc2)cc1 (centres undefined)	0%	0%	56.7 µg/mL (≈ 165 µM)	5.18 µg/mL (≈ 15 µM)	182 µg/mL (≈ 529 µM)	128 µg/mL (≈ 372 µM)	> 256 µg/mL	256 µg/mL (≈ 743 µM)	256 µg/mL (≈ 743 µM)	128 µg/mL (≈ 372 µM)	64 µg/mL (≈ 186 µM)	8 µg/mL (≈ 23.2 µM)	8 µg/mL (≈ 23.2 µM)	> 192 µg/mL	0%	20%	–	–	–
Nc1ccc(C(c2c[nH]cc2-c2ccccc2)n2ccnc2)cc1 (centres undefined)	0%	0%	142 µg/mL (≈ 453 µM)	162 µg/mL (≈ 515 µM)	> 327 µg/mL	256 µg/mL (≈ 814 µM)	> 256 µg/mL	256 µg/mL (≈ 814 µM)	> 256 µg/mL	256 µg/mL (≈ 814 µM)	128 µg/mL (≈ 407 µM)	128 µg/mL (≈ 407 µM)	128 µg/mL (≈ 407 µM)	> 331 µg/mL	80%	80%	–	–	–
Clc1ccc(-c2c[nH]cc2C(c2ccccc2)n2ccnc2)cc1 (centres undefined)	0%	0%	12.8 µg/mL (≈ 38.3 µM)	6.4 µg/mL (≈ 19.2 µM)	44.4 µg/mL (≈ 133 µM)	32 µg/mL (≈ 95.9 µM)	32 µg/mL (≈ 95.9 µM)	32 µg/mL (≈ 95.9 µM)	–	32 µg/mL (≈ 95.9 µM)	16 µg/mL (≈ 47.9 µM)	16 µg/mL (≈ 47.9 µM)	2 µg/mL (≈ 5.99 µM)	46.5 µg/mL (≈ 139 µM)	0%	0%	50% and 83%	–	MIC90 (Candida [19]): 128 µg/mL (≈ 383 µM); No. of animals (Oryctolagus cuniculus [21]): 33%
c1ccc(-c2ccc(C(c3ccccc3)n3ccnc3)cc2)cc1 (centres undefined) [BIFONAZOLE]	0%	–	3.72 µg/mL (≈ 12 µM)	4.1 µg/mL (≈ 13.2 µM)	7.5 µg/mL (≈ 24.2 µM)	8 µg/mL (≈ 25.8 µM)	8 µg/mL (≈ 25.8 µM)	4 µg/mL (≈ 12.9 µM)	16 µg/mL (≈ 51.5 µM)	16 µg/mL (≈ 51.5 µM)	16 µg/mL (≈ 51.5 µM)	4 µg/mL (≈ 12.9 µM)	4 µg/mL (≈ 12.9 µM)	4.5 µg/mL (≈ 14.5 µM)	0%	0%	3% and 6% and 10%	0%	–
CC(=O)N1CCN(c2ccc(OC[C@H]3CO[C@](Cn4ccnc4)(c4ccc(Cl)cc4Cl)O3)cc2)CC1 [KETOCONAZOLE]	0%	–	8.6 µg/mL (≈ 16.2 µM)	8.3 µg/mL (≈ 15.6 µM)	16.9 µg/mL (≈ 31.8 µM)	4 µg/mL (≈ 7.53 µM)	32 µg/mL (≈ 60.2 µM)	4 µg/mL (≈ 7.53 µM)	32 µg/mL (≈ 60.2 µM)	32 µg/mL (≈ 60.2 µM)	32 µg/mL (≈ 60.2 µM)	0.5 µg/mL (≈ 0.941 µM)	2 µg/mL (≈ 3.76 µM)	8.1 µg/mL (≈ 15.2 µM)	–	0%	–	0%	Fungicidal (Candida [23]): 0%
